Test system: nerve-muscle co-culture
Experiment: Muscle contraction frequency in nerve-muscle co-culture
Format: cell-based, human, rat
Settings: carisoprodol 5×10^−3M; for Contraction (%): % of contractions at T0; for Contraction (%) / Result: single wells
Experimental: The nerve-muscle co-culture model is a model suited to studying the influence of a substance on a muscle contraction frequency. The number of muscular contractions is counted during a given time, before and after applying the examined substance to the co-culture. The number of contractions in the presence of the substance is expressed in percentage compared to the initial number of contractions. An inhibitory effect on muscle contraction is determined if a significant reduction or blocking of the muscular contraction frequency is observed in at least 2 wells out of 3 wells containing the nerve-muscle co-culture.
Human muscular cells were seeded in 24-wells culture plates. Cells were incubated at 37° C., 5% CO2 during the entire culture duration.
After 5 days of culture, spinal cords were isolated from rat embryos, and were cut in small parts (explants). One explant per culture well was placed on the muscular cells, and both cell types were cultivated in 24-wells plate for 21 days.
During the cultivation period, the muscular cells merge and form muscular fibers. The motor neurons present in the spinal cord emit nervous extensions which contact the muscular fibers. Neuro-muscular junctions are formed and muscular contractions appear.
After 21 days of co-culture, the model was mature and functional. The muscular fibers innervated spontaneously and contracted in a regular way.
A stock solution of the test extract was prepared in the culture medium. This solution was applied to the nerve-muscle culture.
The culture medium alone served as a negative control.
The positive control was carisoprodol, a drug which blocks the muscular contraction in a reversible way. A stock solution of carisoprodol was prepared in DMSO at 1M. This solution was diluted at 1/200 into the culture medium (final concentration of 5×10^−3M). Three culture wells were used per treatment (control/test extract).
The trial started at the 21st day of the culture.
The microscope is equipped with a motorized stage piloted by a LUCIA software. It is also combined with a camera and connected to a computer allowing the recording of video sequences.
For each selected culture well, a muscle fiber showing regular contractions is referenced. The XY data of this fiber were registered using the LUCIA software. The frequency of the contractions of this fiber was manually counted during 30 seconds, and a video sequence was recorded (T0). The same operation was carried out for all wells.
The test extract and the references were applied to the nerve-muscle culture, and the trial system was incubated at 37° C., 5% CO2.
After 2 hours, 6 hours and 24 hours of incubation, the contraction frequency was counted again during 30 seconds and a video sequence was also recorded for each counting.
For each culture well, the number of muscular contractions counted in the presence of the examined extract is expressed in percentage compared to the number of contractions counted before extract application (T0).
When the frequency of contractions is in the range of between 80%-120% compared to T0, the modulation of the muscular contractions frequency is not considered as significant. This range is based on the fact that during the time, the muscular contraction frequency can vary slightly, independent on the conditions applied.
The results are expressed as follows: • No significant variation in the muscular contractions frequency: contractions percentage between 80 and 120%, symbolized by (=) • A significant reduction in the muscular contractions frequency: contractions percentage <80%, symbolized by (−). • Blocking of the muscular contractions frequencies: contractions percentage=0%, symbolized by (0) • A significant increase in the muscular contractions frequencies: contractions percentage >120%, symbolized by (+).
The product effect is assessed only if the same result is obtained in at least 2 out of 3 culture wells (i.e. 2 out of 3 muscle fibers).

In the case of CCCC(C)(COC(N)=O)COC(=O)NC(C)C (stereo not shown) [Carisoprodol, carisoprodol], the conclusion (2 h incubation) is reported as “Blocked”, the “Contraction (%)” value (2 h incubation) is reported as 0% and the conclusion (2 h incubation, listed as carisoprodol) is reported as “complete blockage”. For the same molecule, the Result (2 h incubation) was 0 (Blocking of the muscular contractions frequencies: contractions percentage=0%), the conclusion (6 h incubation) was “Blocked” and the “Contraction (%)” value (6 h incubation) was 0%. For the same molecule, the conclusion (6 h incubation, listed as carisoprodol) was “complete blockage”, the Result (6 h incubation) was 0 (Blocking of the muscular contractions frequencies: contractions percentage=0%) and the conclusion (24 h incubation) was “Blocked”. For the same molecule, the “Contraction (%)” value (24 h incubation) was 0%, the conclusion (24 h incubation, listed as carisoprodol) was “complete blockage” and the Result (24 h incubation) was 0 (Blocking of the muscular contractions frequencies: contractions percentage=0%). For the same molecule, the “reversibility of the effect on muscle contractions after rinsing off” value (after rinsing off) was “reversible”.
